Here are results for three molecules from patent publication US7232673B2, “Antimicrobial protein from Lyophyllum shimeji” (Japan Tobacco Inc., priority 1999, dated 2007).

What all share (assay): Pyranose oxidase activity (properties of pyranose oxidase, method of Nishimura et al. 1996)
Series [1] addresses T1, Lyophyllum shimeji antimicrobial protein (pyranose oxidase), native, purified MonoQ fractions Nos. 42-44 containing the 65 kDa + 70 kDa proteins, SEQ ID NO:2 (Lyophyllum shimeji, UniProt Q75ZP8).
T1 construct: MonoQ fractions 42-44 holding the 70 kDa precursor (1-618) and 65 kDa mature form (76-618), both from a single gene; not the His-tagged E. coli product
T1 sequence (Q75ZP8 76-618): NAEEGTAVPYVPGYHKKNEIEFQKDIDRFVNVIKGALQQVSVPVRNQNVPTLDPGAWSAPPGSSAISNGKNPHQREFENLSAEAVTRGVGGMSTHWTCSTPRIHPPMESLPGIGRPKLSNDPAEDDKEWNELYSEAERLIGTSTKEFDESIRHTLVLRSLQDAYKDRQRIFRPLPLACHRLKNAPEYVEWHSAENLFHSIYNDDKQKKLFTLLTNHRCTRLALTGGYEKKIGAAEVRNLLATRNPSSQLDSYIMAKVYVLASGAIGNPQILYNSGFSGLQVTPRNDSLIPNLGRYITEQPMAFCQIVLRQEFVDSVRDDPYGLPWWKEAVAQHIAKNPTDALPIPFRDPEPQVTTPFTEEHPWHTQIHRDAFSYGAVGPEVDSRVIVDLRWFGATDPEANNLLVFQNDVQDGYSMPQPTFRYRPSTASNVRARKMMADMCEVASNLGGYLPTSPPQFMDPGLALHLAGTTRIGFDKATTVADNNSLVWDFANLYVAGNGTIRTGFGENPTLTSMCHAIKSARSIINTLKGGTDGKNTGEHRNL
It is filed as biochemical. The note with it: result in words. As for the experimental part: (§1) The amino acid sequences thus determined were searched for in a data base. […] Thus, the pyranose oxidase activity of each MonoQ fraction was measured in accordance with the method of Nishimura et al. (1996). […] Accordingly, it is estimated that the antimicrobial activity would be derived from hydrogen peroxide formed during the oxidation of glucose in the medium by this enzyme. Next, the fractions containing both of the 65 kDa and 70 kDa proteins (FIG. 2 Nos. 42–44) were exclusively concentrated and properties of pyranose oxidase were analyzed. […] The amount of the enzyme proteins (65 kDa+70 kDa) was determined by SDS-PAGE silver staining.

Substrate in series [2]: OC[C@H]1OC(O)[C@H](O)[C@@H](O)[C@@H]1O
It is filed as biochemical, Lyophyllum shimeji. The note with it: other: native L. shimeji enzyme protein (65 kDa+70 kDa), table footnote (activity unit): pH 7.0, 37° C. As for the experimental part: as §1

Substrate in series [3]: OC[C@H]1OC[C@H](O)[C@@H](O)[C@@H]1O
It is filed as biochemical, Lyophyllum shimeji. Conditions: other: native L. shimeji enzyme protein (65 kDa+70 kDa), table footnote (activity unit): pH 7.0, 37° C. How it is done:
as §1

For `OC[C@H]1OC[C@H](O)[C@@H](O)[C@@H]1O` [1,5-Anhydroglucitol], in series [1], the “Km values to 1,5-anhydroglucitol” value was “low”.
As for `OC[C@H]1OC(O)[C@H](O)[C@@H](O)[C@@H]1O` (stereo partly shown) [Glucose], in series [1], the “Km values to glucose” value was “low”.

B1: Lyophyllum shimeji antimicrobial protein (pyranose oxidase), native, purified MonoQ fractions Nos. 42-44 containing the 65 kDa + 70 kDa proteins, SEQ ID NO:2 … (protein)
chain: T1 sequence (Q75ZP8 76-618)
notes: MonoQ fractions 42-44 holding the 70 kDa precursor (1-618) and 65 kDa mature form (76-618), both from a single gene; not the His-tagged E. coli product
Regarding B1, the Km – broadly, the concentration of substrate that gives half-maximal velocity – in series [2] is on record as 0.50 mM; in series [3], 6.5 mM.
